{
  "source": "patent US20240425545A1",
  "about": "(Durect Corporation, priority 2021, published 2024)",
  "key": {"[1]": {"experimental": "Four vials were prepared and stored at 2-8° C. or […] according to Table B2. The samples were scheduled initially to pull for testing at 3 weeks and 6 weeks time points.\nFor appearance, each unopened vial was visually examined for color, clumping, and flowability.\nBased on the molecular weights, and expected UV response factors used in this study, the expected analytical sample concentrations were within the range of the 25HC3S sodium reference standards (0.75 mg/mL to 1.25 mg/mL as 25HC3S Sodium Salt).\nSamples were prepared by pipetting 20 mL of 100% methanol into each vial and mixing well, with sonication and vortexing to fully dissolve the samples for HPLC analysis.\nHPLC analysis was performed."}, "[2]": {"test": "Dynamic vapor sorption (DVS)", "assay_type": "physicochemical", "settings": "for Hygroscopicity: in words, up to about 95% relative humidity", "source_text": "Dynamic vapor sorption data was collected on a Surface Measurement System DVS Intrinsic instrument. The samples were not dried prior to analysis. […] Data were not corrected for the initial moisture content of the sample."}, "[3]": {"experimental": "Angle of repose is measured as follows. Powder is poured from a funnel onto a flat surface until a cone of powder is created. The angle of repose is calculated according to the following equation: […]\nThe height of the cone was estimated with calipers.", "remark": "listed apart in the source"}, "[4]": {"settings": "5 mL cylinder, 300 taps", "experimental": "Although there are some variations in the method of determining the compressibility index and Hausner ratio, the basic procedure is to measure the unsettled apparent volume, VO, and the final tapped volume, Vf, of the powder after tapping the material until no further volume changes occur. The compressibility index and the Hausner ratio are calculated as follows: […]\nPowder was carefully poured into a 5 mL glass graduated cylinder (to contain) until it was close to or at 5.0 mL. This initial volume was recorded as Vo. The graduated cylinder was tapped on a hard surface for 200 times and the volume was recorded. The cylinder was tapped 100 times more, and the final volume Vf was recorded."}},
  "note": "“Also recorded” adds a separate entry of the source. Read-outs that look alike come from different tables or passages of the source.",
  "data": [
    {"smiles": "C[C@H](CCCC(C)(C)O)[C@H]1CC[C@H]2[C@@H]3CC=C4C[C@@H](OS(=O)(=O)[O-])CC[C@]4(C)[C@H]3CC[C@]12C.C[N+](C)(C)CCO", "note": "[25HC3S choline, 25-Hydroxy-Cholest-5-En-3-Sulfate Choline]", "values": [
      {"measurement": "Physical and chemical solid-state stability, comments", "setting": "[1]", "value": "Stable after 5 weeks at 80 °C physically and"},
      {"measurement": "Temperature stability", "setting": "[1]", "value": "good temperature stability"},
      {"measurement": "% Recovery of 2-8° C./3 wk vs 60° C./1 wk; 2-8° C./5 wk vs 80° C./5 wk", "setting": "[1]; 3 wk", "value": 100.8, "unit": "%"},
      {"measurement": "% Recovery of 2-8° C./3 wk vs 60° C./1 wk; 2-8° C./5 wk vs 80° C./5 wk", "setting": "[1]; 5 wk", "value": 97.3, "unit": "%"},
      {"measurement": "X-ray powder diffraction pattern after DVS", "setting": "[2]; before vs after DVS, FIG. 3", "value": "does not appreciably change"},
      {"measurement": "Hygroscopicity", "setting": "[2]", "value": "less hygroscopic"},
      {"measurement": "Hygroscopicity", "setting": "[2]; listed as crystalline 25HC3S choline", "value": "not appreciably hygroscopic; also recorded: less hygroscopic"},
      {"measurement": "Angle of Repose", "setting": "[3]; about 2 g powder, cone of 21.14 mm diameter", "value": 34.9, "unit": "degrees"},
      {"measurement": "Angle of Repose Rounded Whole Number", "setting": "[3]; rounded", "value": 35, "unit": "degrees"},
      {"measurement": "Compressibility Index", "setting": "[4]", "value": 42},
      {"measurement": "Hausner Ratio", "setting": "[4]", "value": 1.72}
    ]},
    {"smiles": "C[C@H](CCCC(C)(C)O)[C@H]1CC[C@H]2[C@@H]3CC=C4C[C@@H](OS(=O)(=O)[O-])CC[C@]4(C)[C@H]3CC[C@]12C.[Na+]", "note": "[crystalline 25HC3S sodium, reference compound]", "values": [
      {"measurement": "Weight gain (water uptake) in DVS", "setting": "[2]; from 5% up to about 95% relative humidity", "value": "significant water uptake"}
    ]}
  ]
}
